# Source: patent publication US8765946B2, “Methods of preparing and using quinazoline and quinoline derivatives” (priority 2006, dated 2014)
# Test system: A431 cells
# Test: A431 cell growth inhibition assay (MTT assay)
# Type: cell-based
# Conditions: Homo sapiens, A-431, concentration of 3 μM, 72 hours, read-out: Inhibition Percent (%)
# Description: A431 Cell Growth Inhibition Assay (MTT Assay)
# A431, an epidermoid carcinoma cell line; The Cell Bank, Committee on Type Culture Collection Chinese Academy of Science, Shanghai.
# Mix prepared medium DMEM and F12 in the proportion of 1:1, then add FBS to a final concentration of 10%.
# Dissolved the dried compound sample with 100% DMSO to 2 mM. Then diluted the dissolved compound to 20 μM with cell complete growth medium.
# Prior to the assay, cultured the A431 to logarithmic phase, and then removed medium from cell monolayers and wash the cells once with sterilized PBS. Aspriated the PBS and added 2 mL trypsin solution to cover the cell growth surface, removed 1 mL trypsin solution after soaking about 1 minute. Transferred the cell-culture plate to CO2 incubator; incubated at 37° C. for 8 minutes to allow cells to dissociate. After the cells detached, added 4 mL complete growth medium containing FBS with pipette to disperse them off and mixed gently to obtain a homogeneous cell suspension. Aspirated some of the cell suspension to a sterilized polypropylene tube, and determined the cell concentration by counting in a hematocytometer chamber under a microscope. Adjusted the cell concentration with growth medium to obtain 2.5×10^4 cells per milliliter.
# Added 100 μL adjusted cell suspension to the 96-well cell-culture plate and occasionally mixed the cell suspension during the seeding process. After seeding cells, incubated the plate at 37° C. overnight with 5% CO2 in the CO2 incubator for cell attachment.
# After the cell attachment, added 100 μL prepared compound solutions to the corresponding wells (add PBS to the ambient wells of the plate). The final compound concentrations ranged from 10 μM to 1.52 nM. Incubated the plate at 37° C. with 5% CO2 for 72 hours in the CO2 incubator.
# After the exposure to the compound, removed the cell culture supernatant. Then added 100 μL 0.5 mg/mL MTT solution which dissolved in the growth medium without FBS. Incubated the plate at 37° C. with 5% CO2 for another 4 hours to allow the MTT reaction to proceed.
# After the MTT reaction, discarded the MTT reaction solution. Added 100 μL DMSO to each well, and the plate was agitated on the plate shaker for several minutes to dissolve the formazan. Then, detected the absorbance at 490 nm using microplate reader.
row,SMILES,inhibition at 3 µM [%]
1,"CCCN1CCC(=CC(=O)Nc2cc3c(Nc4ccc(F)c(Cl)c4)c(C#N)cnc3cc2OCCOC)CC1 [Example 182, N-(4-(3-chloro-4-fluorophenylamino)-3-cyano-7-(2-methoxyethoxy)quinolin-6-yl)-2-(1-propylpiperidin-4-ylidene)acetamide]",90
2,"C#Cc1cccc(Nc2c(C#N)cnc3cc(OCCOC)c(NC(=O)C=C4CCN(CCOC)CC4)cc23)c1 [Example 193, N-(3-cyano-4-(3-ethynylphenylamino)-7-(2-methoxyethoxy)quinolin-6-yl)-2-(1-(2-methoxyethyl)piperidin-4-ylidene)acetamide]",90
3,"CCN1CCC(=CC(=O)Nc2cc3c(Nc4ccc(F)c(Cl)c4)c(C#N)cnc3cc2OCCOC)CC1 [Example 181, N-(4-(3-chloro-4-fluorophenylamino)-3-cyano-7-(2-methoxyethoxy)quinolin-6-yl)-2-(1-ethylpiperidin-4-ylidene)acetamide]",94
4,"COCCOc1cc2ncc(C#N)c(Nc3ccc(F)c(Cl)c3)c2cc1NC(=O)C=C1CCN(CCOC)CC1 [Example 183, N-(4-(3-chloro-4-fluorophenylamino)-3-cyano-7-(2-methoxyethoxy)quinolin-6-yl)-2-(1-(2-methoxyethyl)piperidin-4-ylidene)acetamide]",90
5,"CCOc1cc2ncc(C#N)c(Nc3ccc(F)c(Cl)c3)c2cc1NC(=O)C=C1CCN(CC)CC1 [Example 178, N-(4-(3-chloro-4-fluorophenylamino)-3-cyano-7-ethoxyquinolin-6-yl)-2-(1-ethylpiperidin-4-ylidene)acetamide]",88
6,"C#Cc1cccc(Nc2c(C#N)cnc3cc(OCCOC)c(NC(=O)C=C4CCN(CCC)CC4)cc23)c1 [Example 192, N-(3-cyano-4-(3-ethynylphenylamino)-7-(2-methoxyethoxy)quinolin-6-yl)-2-(1-propylpiperidin-4-ylidene)acetamide]",93
7,"C#Cc1cccc(Nc2c(C#N)cnc3cc(OCCOC)c(NC(=O)C=C4CCN(CC)CC4)cc23)c1 [Example 191, N-(3-cyano-4-(3-ethynylphenylamino)-7-(2-methoxyethoxy)quinolin-6-yl)-2-(1-ethylpiperidin-4-ylidene)acetamide]",93
8,"C#Cc1cccc(Nc2c(C#N)cnc3cc(OCCOC)c(NC(=O)C=C4CCN(C)CC4)cc23)c1 [Example 190, N-(3-cyano-4-(3-ethynylphenylamino)-7-(2-methoxyethoxy)quinolin-6-yl)-2-(1-methylpiperidin-4-ylidene)acetamide]",91
9,"CCCN1CCC(=CC(=O)Nc2cc3c(Nc4ccc(F)c(Cl)c4)c(C#N)cnc3cc2OCC)CC1 [Example 179, N-(4-(3-chloro-4-fluorophenylamino)-3-cyano-7-ethoxyquinolin-6-yl)-2-(1-proplpiperidin-4-ylidene)acetamide]",90
10,"COCCOc1cc2ncc(C#N)c(Nc3ccc(F)c(Cl)c3)c2cc1NC(=O)C=C1CCN(C)CC1 [Example 180, N-(4-(3-chloro-4-fluorophenylamino)-3-cyano-7-(2-methoxyethoxy)quinolin-6-yl)-2-(1-methylpiperidin-4-ylidene)acetamide]",92
11,"COCCOc1cc2ncc(C#N)c(Nc3cccc(Br)c3)c2cc1NC(=O)C=C1CCN(C)CC1 [Example 194, N-(4-(3-bromophenylamino)-3-cyano-7-(2-methoxyethoxy)quinolin-6-yl)-2-(1-methylpiperidin-4-ylidene)acetamide]",89

# Biological target: T1, A431 cells EGFR-TK phosphorylation stimulated by EGF (Homo sapiens, UniProt P00533)
# T1 construct: against A431 cells EGFR-TK; endogenous in cells; host or cells: A431 cells
# T1 sequence (P00533 25-1210): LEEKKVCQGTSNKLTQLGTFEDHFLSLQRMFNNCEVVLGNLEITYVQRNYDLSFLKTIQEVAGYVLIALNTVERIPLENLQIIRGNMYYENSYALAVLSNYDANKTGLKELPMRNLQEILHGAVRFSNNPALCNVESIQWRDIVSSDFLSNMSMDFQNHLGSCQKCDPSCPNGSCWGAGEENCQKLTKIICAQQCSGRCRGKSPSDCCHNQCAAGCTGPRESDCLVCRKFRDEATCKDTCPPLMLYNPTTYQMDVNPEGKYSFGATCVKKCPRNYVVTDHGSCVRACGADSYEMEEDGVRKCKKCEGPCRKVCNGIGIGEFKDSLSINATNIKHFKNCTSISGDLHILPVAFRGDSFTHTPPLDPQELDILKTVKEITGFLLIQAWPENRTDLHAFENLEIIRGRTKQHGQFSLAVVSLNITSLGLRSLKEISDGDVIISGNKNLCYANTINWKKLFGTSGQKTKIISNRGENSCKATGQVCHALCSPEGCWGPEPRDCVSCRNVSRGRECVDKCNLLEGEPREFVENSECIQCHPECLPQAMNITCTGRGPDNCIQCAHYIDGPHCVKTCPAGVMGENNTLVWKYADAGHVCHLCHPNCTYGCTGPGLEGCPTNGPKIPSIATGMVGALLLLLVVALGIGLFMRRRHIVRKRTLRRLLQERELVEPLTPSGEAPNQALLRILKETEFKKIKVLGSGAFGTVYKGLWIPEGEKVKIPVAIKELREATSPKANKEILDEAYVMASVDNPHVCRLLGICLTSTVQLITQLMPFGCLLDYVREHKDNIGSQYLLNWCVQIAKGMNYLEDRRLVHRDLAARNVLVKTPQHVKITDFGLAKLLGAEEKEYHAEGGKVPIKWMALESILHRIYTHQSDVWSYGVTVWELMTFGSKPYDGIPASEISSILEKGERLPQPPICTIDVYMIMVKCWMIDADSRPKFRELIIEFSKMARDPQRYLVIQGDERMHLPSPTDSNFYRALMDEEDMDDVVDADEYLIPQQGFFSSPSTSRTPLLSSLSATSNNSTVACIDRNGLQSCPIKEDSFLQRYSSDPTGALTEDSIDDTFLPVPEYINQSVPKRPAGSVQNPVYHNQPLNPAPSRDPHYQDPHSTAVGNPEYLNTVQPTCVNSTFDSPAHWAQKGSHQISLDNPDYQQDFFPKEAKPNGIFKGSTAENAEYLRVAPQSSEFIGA
# Test: Inhibition of cellular EGFR-TK phosphorylation stimulated by EGF in A431 cells
# Type: cell-based
# Conditions: A431 cells EGFR-TK phosphorylation stimulated by EGF (Table 4)
# Description: Inhibition Experiment of Cellular Epidermal Growth Factor Receptor Tyrosine Kinase
# 1) A431 cells were cultured in a medium which was prepared by adding 10% FCS into another medium comprising 50% DMEM and 50% F12.
# 2) A431 cells grown in six-well plates were cultured in a serum-free medium for 24 hours. During the 24 hour period the medium was replenished once after 12 hours.
# 3) A solution containing a compound to be assessed was added the A431 cells and the cells were cultured for 2 hours, supplemented twice by a medium free of the compound, and then EGF (100 ng/well) was added, and cultured for 5 minutes.
# 4) A431 cell homogenate was prepared by Laemili buffer which comprised 2% sodium dodecyl sulfonate (SDS), 5% 2-mercaptoethanol, 10% glycerol and 5 mM Tris (pH 6.8).
# 5) The A431 cell homogenate was heated for 5 minutes at 100° C.
# 6) Proteins in the A431 cell homogenates were separated by PAGE and transferred onto a nitrocellulose membrane, and an infrared reading was obtained.
row,SMILES,EC50 [nM]
1,"COc1cc2ncnc(Nc3ccc(Oc4ccccc4)c(OC)c3)c2cc1NC(=O)C=C1CCNCC1 [Example 110, N-(7-methoxy-4-(3-methoxy-4-phenoxyphenylamino)quinazolin-6-yl)-2-(piperidin-4-ylidene)acetamide]",900
2,"COCCOc1cc2ncnc(Nc3cccc(Br)c3)c2cc1NC(=O)C=C1CCN(C)CC1 [Example 65, N-(4-(3-bromophenylamino)-7-(2-methoxyethoxy)quinazolin-6-yl)-2-(1-methylpiperidin-4-ylidene)acetamide]",230
3,"COCCOc1cc2ncc(C#N)c(Nc3ccc(OCc4cccc(F)c4)c(Cl)c3)c2cc1N [Example 141, 4-(4-(3-fluorobenzyloxy)-3-chlorophenylamino)-6-amino-7-(2-methoxyethoxy)quinoline-3-carbonitrile]",280

# Same assay, conditions: A-431; concentration of 3 μM; A431 cells, EGF stimulated; one-time measurement at a single concentration (preliminary selection); NA = No activity; read-out: Inhibition Percent (%)
row,SMILES,inhibition at 3 µM [%]
1,"COc1cc2ncnc(Nc3ccc(Oc4ccccc4)c(OC)c3)c2cc1NC(=O)C=C1CCNCC1 [Example 110, N-(7-methoxy-4-(3-methoxy-4-phenoxyphenylamino)quinazolin-6-yl)-2-(piperidin-4-ylidene)acetamide]",59
2,"C#Cc1cccc(Nc2ncnc3ccc(NC(=O)C=C4CCN(Cc5ccccc5)CC4)cc23)c1 [Example 6, 2-(1-benzylpiperidin-4-ylidene)-N-(4-(3-ethynylphenylamino)quinazolin-6-yl)acetamide]",24
3,"O=C(C=C1CCNCC1)Nc1cc2c(Nc3cccc(Br)c3)ncnc2cc1OCCCN1CCOCC1 [Example 37, N-(4-(3-bromophenylamino)-7-(3-morpholinopropoxy)quinazolin-6-yl)-2-(piperidin-4-ylidene)acetamide]",82
4,"CCOc1cc2ncnc(Nc3ccc(OCc4ccccn4)c(Cl)c3)c2cc1NC(=O)C=C1CCNCC1 [Example 107, N-(4-(3-chloro-4-(pyridin-2-ylmethoxy)phenylamino)-7-ethoxyquinazolin-6-yl)-2-(piperidin-4-ylidene)acetamide]",52
5,"O=C(C=C1CCNCC1)Nc1cc2c(Nc3cccc(Cl)c3)ncnc2cc1F [Example 30, N-(4-(3-chlorophenylamino)-7-fluoroquinazolin-6-yl)-2-(piperidin-4-ylidene)acetamide]",55
6,"COc1cc2ncc(C#N)c(Nc3ccc(OCc4cccc(F)c4)c(Cl)c3)c2cc1NC(=O)C=C1CCNCC1 [Example 144, N-(4-(4-(3-fluorobenzyloxy)-3-chlorophenylamino)-3-cyano-7-methoxyquinolin-6-yl)-2-(piperidin-4-ylidene)acetamide]",89
7,"N#Cc1cnc2ccc(N)cc2c1Nc1ccc(F)c(Cl)c1 [Example 132, 6-amino-4-(3-chloro-4-fluorophenylamino)quinoline-3-carbonitrile]",64
8,"C#Cc1cccc(Nc2ncnc3ccc(NC(=O)C=C4CCN(CC)CC4)cc23)c1 [Example 5, 2-(1-Ethylpiperidin-4-ylidene)-N-(4-(3-ethynylphenylamino)quinazolin-6-yl)acetamide]",73
9,"COCCOc1cc2ncnc(Nc3cccc(Br)c3)c2cc1NC(=O)C=C1CCNCC1 [Example 40, N-(4-(3-bromophenylamino)-7-(2-methoxyethoxy)quinazolin-6-yl)-2-(piperidin-4-ylidene)acetamide]",89
10,"C[C@@H](Nc1ncnc2ccc(NC(=O)C=C3CCNCC3)cc12)c1ccccc1 [Example 35, N-(4-((R)-1-phenylethylamino)quinazolin-6-yl)-2-(piperidin-4-ylidene)acetamide]",23
11,"O=C(C=C1CCNCC1)Nc1ccc2ncnc(Nc3ccccc3)c2c1 [Example 31, N-(4-(phenylamino)quinazolin-6-yl)-2-(piperidin-4-ylidene)acetamide]",33
12,"COCCOc1cc2ncc(C#N)c(Nc3ccc(OCc4cccc(F)c4)c(Cl)c3)c2cc1N [Example 141, 4-(4-(3-fluorobenzyloxy)-3-chlorophenylamino)-6-amino-7-(2-methoxyethoxy)quinoline-3-carbonitrile]",91
